In paper PMC7206208, “In vivo data: treatment with the F11R/JAM-A peptide 4D decreases mortality and reduces the generation of atherosclerotic plaques in ApoE-deficient mice” (Data in Brief, 2020):
Non-standard residues stand in square brackets, D forms with d. Residues, ends and D or L forms follow the SMILES beside them.

What was measured:
[1] = mouse, in vivo
Method: The concentration of peptide 4D was measured in the plasma at various time points, and is expressed in µg/ml. […] Time points of 15 min, followed by 1, 2, 4, 5, and 24 hours after the administration of peptide 4D were selected to generate the concentration of Cmax, Tmax, area under the plasma concentration time curve (AUC), drug clearance, terminal elimination half-life, and volume of distribution.
Drug pharmacokinetics (PK) in vivo is a key requirement for the evaluation of the stability and availability of peptide 4D, as a potential compound for use in the next phase of our investigations. Accordingly, PK data of peptide 4D were obtained by the Services of Bio Quant, San Diego, CA. Thus far, a single dose of the F11R peptide 4D and a time perfusion course were performed in Balb/c mice. Time points of 15 min, followed by 1, 2, 4, 5, and 24 hr after the administration of peptide 4D to animals, were selected to generate concentration vs time curves thereby allowing for the determination of the PK parameters of maximal concentration (Cmax), maximal time (Tmax), area under the plasma concentration time curve (AUC), drug clearance, terminal elimination half-life, and volume of distribution of peptide 4D.

[2] = system: inflamed endothelial cells; conditions: in culture; the authors' earlier work; cited from earlier work
From the text: The data in this article focus on the F11 Receptor (F11R/JAM-A; Junctional Adhesion Molecule-A; JAM-A, F11R), a cell adhesion protein constitutively expressed on the membrane surface of circulating platelets and localized within the tight junctions of healthy endothelial cells (ECs). Previous reports have shown that F11R/JAM-A plays a critical role in the adhesion of platelets to an inflamed endothelium due to its’ pathological expression on the luminal surface of the cytokine-inflamed endothelium. Since platelet adhesion to an inflamed endothelium is an early step in the development of athero ...

inflamed endothelium = test: Platelet adhesion to walls of blood vessels, intravital microscopy; assay type: in vivo, mice; conditions: intravital microscopy videos, arteriole and venule
From the text: The F11 Receptor (F11R/JAM-A; Junctional Adhesion Molecule-A; JAM-A; F11R) is a cell adhesion protein present on the surface of circulating platelets and located within the tight junctions of endothelial and epithelial cells. The data presented here confirm in-vivo evidence for the critical role of F11R/JAM-A in the formation of atherosclerotic plaques in ApoE^-/- mice and provide further strong experimental support for our work in Babinska et al. (2019). […] These mice were euthanized, and at the same time, two mice obtained from the peptide 4D-treated group were randomly-selected and euthanized, and their tissues examined histologically in comparison to the controls. […] The data presented in Fig. 3, compare the overall health and physical appearance of 10^1/2 months old ApoE^-/- mice following their termination of a 4- month injection period with either peptide 4D or the vehicle. […] Data of Fig. 5 display the pharmacokinetic analysis (PK) of peptide 4D in vivo. Data display by videos: videos depicting platelet adhesion to the walls of blood vessels using the Intravital Microscopy System are provided and available in this article as the Supplemental Files. […]

platelets = test: M.Ab.F11-induced platelet aggregation in vitro; assay type: cell-based; conditions: peptide 4D 0.3 mg (670 µg/ml), from dose-response
ApoE-/- mice = test: Chronic treatment of ApoE-/- mice: atherosclerotic plaques and physical appearance; assay type: in vivo, mouse
Method: Female Apo E^-/- mice (six weeks old) of a C57BL/6J background, (Jackson Laboratory, Bar Harbor, Me), were divided into two separately-housed groups. Group 1 was treated with peptide 4D by daily, intraperitoneal injections with peptide 4D (4.3 mg/200µl) for a 3 month period. Group 2 was injected daily with an equivalent amount of diluent vehicle (200µl of 0.9% saline) for the same 3- month period. All animals were fed a regular Rodent Diet (Calories provided by protein 28.1%, fat 12.13% and carbohydrates 59.8%) for two months, then the diet was switched to a Western-type diet (TD.88137 Adjusted Calories Diet (42% from fat) (0.15% cholesterol, 21% anhydrous milk fat) (Harlan Laboratories Inc.) to induce hypercholesterolemia for a period of one month, [2]. Following 3 month of injections with either the F11R peptide 4D or the vehicle, saline, the animals were euthanized. The aortas and hearts were isolated, dissected, and the atherosclerotic lesions were analyzed.
Following euthanasia, the aortas were prepared for dissection and the aortic arches were photographed. Following dissection, en face lesion surface area assay was performed on the aortas and hearts as previously described, [4], [5]. The dissected aortas were stained with Oil-Red-O stain modified from previously described methods, [4], [6]. […] The total intimal lesion area and the necrotic core area (NE) per cross section were quantified by taking the average of 6 sections spaced 30 µm apart, beginning at the base of the aortic root. The necrotic core areas, acellular/anuclear areas (negative for hematoxylin-positive nuclei, white areas of lesion) were measured per cross section from the same slides where total intimal lesion area was measured. […] Lesion areas or necrotic areas (white areas of lesion) where measured and summarized using software Image-J. The aortas were fixed in PBS/4% formaldehyde for 3 days, washed in PBS followed by staining with 1.8% Oil-Red-O in 60% isopropanol for 15 min at 22°C, then de-stained in 60% isopropanol for 5 min. […]

[3] = system: human platelets (in platelet-rich plasma); test: ADP-induced platelet aggregation in platelet-rich plasma (turbidimetric); assay type: cell-based; conditions: for maximal platelet aggregation [%] in response to 10 µM ADP: PRP, 37°C, 2 min pre-incubation, mean ± SD, n=3-7
Method: Fig. 4 Test of the effect of peptide 4D on the ADP-induced aggregation of human platelets (in platelet-rich plasma). Fig. 4A. This figure depicts a representative tracing of platelet aggregation induced by ADP (2µM) in the presence of peptide 4D (P4D; 500µM, final concentration), in comparison to the ADP-induced platelet aggregation in the absence of peptide 4D (control). Fig. 4B. This figure depicts a representative tracing of platelet aggregation induced by ADP (10µM) in the presence of peptide 4D (P4D, 500µM final concentration), in comparison to the ADP-induced platelet aggregation in the absence of peptide 4D (control).
Platelet aggregation in platelet-rich plasma (PRP) was carried-out by using the turbidimetric method in a platelet aggregometer (Chronolog, Haverstown, PA). Aliquots of the PRP were maintained at 37°C. The effect of peptide 4D on platelet aggregation was examined by utilizing three concentrations of peptide 4D (final concentrations of 100µM, 250µM and 500 µM). The PRP was incubated for 2 minutes with peptide 4D prior to the addition of ADP at final concentrations of 2µM (subthreshold concentration) or 10µM, for the initiation of platelet aggregation.

CC(C)[C@H](NC(=O)[C@H](CO)NC(=O)[C@H](N)CCCCN)C(=O)N[C@H](C(=O)N[C@H](CCCNC(=N)N)C(=O)N[C@@H](CCC(=O)O)C(=O)N[C@@H](CC(=O)O)C(=O)N[C@H](C(=O)NCC(=O)N[C@H](C(=O)N[C@@H](Cc1ccc(O)cc1)C(=O)N[C@H](C(=O)N[C@@H](CS)C(N)=O)[C@@H](C)O)[C@@H](C)O)[C@@H](C)O)[C@@H](C)O [peptide 4D] (H-[dK]SVT[dR]EDTGTYTC-NH2; N-terminus and C-terminus assumed)
Tmax [1]: 18 min | half-life [1]: > 210 min | adhesion of platelets to the inflamed endothelial cells [2]: could be blocked | adhesion of platelets onto the inflamed endothelium (inflamed endothelium): significant blockade | inhibition of M.Ab.F11-induced platelet aggregation (platelets): completely inhibited | plaque accumulation in the aortic arch and the whole aorta (ApoE-/- mice; daily i.p. 215 mg/kg (4.3 mg/200 µl) for 3 months, versus saline controls, two mice per group, Fig. 2): much diminished plaque accumulation | external physical appearance (ApoE-/- mice; daily i.p. for 3 months, versus saline controls, Fig. 1): healthy | skin lesion on the chest (ApoE-/- mice; daily i.p. for 4 months, then stopped, observed at 10 1/2 months of age, Fig. 3B): lack of lesion | effect on ADP-induced platelet aggregation ([3]; Fig. 4 and Table 1, ADP 2 or 10 µM, peptide 100-500 µM): lack of an inhibitory effect | maximal platelet aggregation [%] in response to 10 µM ADP ([3]; P4D 100 µM): 70 ± 12% | maximal platelet aggregation [%] in response to 10 µM ADP ([3]; P4D 250 µM): 73 ± 13% | maximal platelet aggregation [%] in response to 10 µM ADP ([3]; P4D 500 µM): 74 ± 20%
